Results on eight compounds are retold here after ChEMBL document CHEMBL5252573, “2,3-Dihydrosorbicillin and chrysopanol stimulate insulin secretion in INS-1 cells” (Bioorg Med Chem Lett, 2023).

Calls of active or inactive are those of the source. The calls are words filed in the database; no cut-off is given here.

Data set [1] concerns INS1. The data set is described as follows: Upregulation of PI3K protein expression in rat INS1 cells at 10 uM incubated for 24 hrs by Western blot analysis. The format is functional, cell-based.
Data set [2] has as its system INS1. Briefly: Upregulation of AKT protein expression in rat INS1 cells at 10 uM incubated for 24 hrs by Western blot analysis. The class given is functional, cell-based. In general terms: In western blotting, separated proteins are transferred to a membrane and probed.
For data set [3], the system named is INS1. The data set is described as follows: Upregulation of IRS-2 protein expression in rat INS1 cells at 10 uM incubated for 24 hrs by Western blot analysis. The format is functional, cell-based.
Data set [4] in a line: Induction of glucose stimulated insulin secretion in rat INS1 cells assessed as increase in insulin level at 10 uM incubated for 1 hr. The format is functional.
For data set [5], the system named is INS1. The data set is described as follows: Upregulation of PDX-1 protein expression in rat INS1 cells at 10 uM incubated for 24 hrs by Western blot analysis. The class given is functional, cell-based.
The test system of data set [6] is INS1. The data set is described as follows: Cytotoxicity against rat INS1 cells assessed as reduction in cell viability at 2.5 to 10 uM incubated for 24 hrs by MTT assay. The following applies: ins1, 24 h, dose 2.5-10 µM. The class given is toxicity, cell-based. Background: Tetrazolium dyes change colour on reduction, which living cells bring about.
Data set [7] is described as follows: Induction of glucose stimulated insulin secretion in rat INS1 cells assessed as increase in insulin level at 5 uM incubated for 1 hr. The format is functional.
In data set [8] the test system is INS1. The data set is described as follows: Upregulation of PPARgamma protein expression in rat INS1 cells at 10 uM incubated for 24 hrs by Western blot analysis. The format is functional, cell-based.
Data set [9] has as its system INS1. The data set is described as follows: Upregulation of AKT protein expression in rat INS1 cells at 5 uM incubated for 24 hrs by Western blot analysis. The format is functional, cell-based.
The test system of data set [10] is INS1. The data set is described as follows: Upregulation of PDX-1 protein expression in rat INS1 cells at 5 uM incubated for 24 hrs by Western blot analysis. The format is functional, cell-based.
Data set [11] relates to INS1. The data set is described as follows: Upregulation of PPARgamma protein expression in rat INS1 cells at 5 uM incubated for 24 hrs by Western blot analysis. The format is functional, cell-based.
Data set [12] relates to INS1. The data set is described as follows: Upregulation of PI3K protein expression in rat INS1 cells at 5 uM incubated for 24 hrs by Western blot analysis. The class given is functional, cell-based.
Data set [13] can be described thus: Induction of glucose stimulated insulin secretion in rat INS1 cells assessed as increase in insulin level at 2.5 uM incubated for 1 hr. The class given is functional.
Data set [14] deals with INS1. The data set is described as follows: Upregulation of IRS-2 protein expression in rat INS1 cells at 5 uM incubated for 24 hrs by Western blot analysis. The format is functional, cell-based.

Turning to `C/C=C/CCC(=O)c1cc(C)c(O)c(C)c1O`, the result in data set [1], in data set [2], in data set [3], in data set [5] and in data set [8] was Active. Moreover, the Activity in [4] is 15.57 ng/mL; in data set [6] it was “Non-Toxic”; in [7], 8.92 ng/mL.
With `CC(O)c1nc2ccccc2c(=O)[nH]1` (stereo unspecified), the Activity entry in [6] is “Non-Toxic”.
For the compound `Cc1ccc(S(=O)(=O)NC(=O)NN2CC3CCCC3C2)cc1` (stereo unspecified) [GLICLAZIDE], the Activity was found to be 20.85 ng/mL in [4] and 9.69 ng/mL in [7].
In the case of `C=CC(C)(C)[C@@]12C=C(O)C(=O)N3/C(=C/c4c[nH]cn4)C(=O)N[C@]31N(O)c1ccccc12`, the Activity in data set [4] was 12.86 ng/mL; in [6], “Non-Toxic”; in data set [7] it was 12.05 ng/mL.
For the compound `Cc1cc(O)c2c(c1)C(=O)c1cccc(O)c1C2=O` [CHRYSOPHANOL], the result in data set [9], in [10], in data set [11], in data set [12] and in [14] was Active. The Activity in data set [4] is 24.23 ng/mL; in [13], 8.81 ng/mL; in data set [6] it was “Non-Toxic”; in [7], 20.01 ng/mL.
With `C=CC(C)(C)[C@@]12C=C(O)C(=O)N3/C(=C/c4cnc[nH]4)C(=O)N[C@]31N(OC)c1ccccc12`, in [6], the Activity result is “Non-Toxic”.
Same read-out and setting: the entry for `COC(=O)[C@@]12Oc3ccc(-c4ccc5c(c4O)C(=O)C4=C(O)C[C@H](C)[C@@H](O)[C@]4(C(=O)OC)O5)c(O)c3C(=O)C1=C(O)C[C@H](C)[C@H]2O` is “Non-Toxic”; for `Cc1cc(O)c2c(c1)C(=O)c1cc(O)cc(O)c1C2=O` [EMODIN] it is “Non-Toxic”.
